Reference: PMC3626398, “Strategies Aimed at Nox4 Oxidase Inhibition Employing Peptides from Nox4 B-Loop and C-Terminus and p22^phox N-Terminus: An Elusive Target” (International Journal of Hypertension, 2013)

Columns and labels:
[1] = system: Nox4; assay: H2O2-generating activity of lysed COS-Nox4 cells (Amplex Red fluorescence); format: biochemical, human; settings: for inhibition of H2O2 production (Nox4 activity): COS-Nox4 cell lysate preincubated with peptide 1 to 50 μM for 15 min at 24°C, mean of 3 experiments (Figure 1(f)); for effect on Nox4 activity (H2O2 production): COS-Nox4 cell lysate preincubated with various concentrations of C-terminal tail peptide for 15 min at 24°C, mean of 3 experiments (Figure 2(b)); for inhibition of Nox4 activity (Nox4-derived H2O2 production): COS-Nox4 cell lysate preincubated with various concentrations of p22phox N-terminal peptide for 15 min at 24°C, mean of 3 experiments (Figure 3(b),(c))
Experimental: Cell transfection was carried out using Lipofectamine LTX and Plus reagent (Invitrogen, Carlsbad, CA, USA), according to the manufacturer's instructions. COS-22 cells were transiently transfected with pcDNA3.1/Hygro-hNox4 (COS-Nox4 cells). Western blot experiments were performed to validate the expression of Nox4 as we reported previously. Twenty-four hours after transfection, cells were harvested by incubating with 0.05% trypsin/EDTA for 5 min at 37°C. Following addition of DMEM/10% FBS to neutralize the trypsin, the cells were pelleted by centrifugation at 1000 ×g for 5 min at 4°C and used for the experiments.
H2O2 production was quantified in lysed COS-Nox4 cells as described previously. […] COS-Nox4 and COS-22 cells were suspended to a concentration of 5 × 10^7 cells/mL in ice-cold disruption buffer (PBS containing 0.1 mM EDTA, 10% glycerol, protease inhibitor cocktail, and 0.1 mM PMSF). The cells were lysed by five freeze/thaw cycles and passed through a 30-gauge needle five times to further lyse the cells. Throughout all these procedures, extreme care was taken to maintain the lysate at a temperature close to 0°C. Incubation of COS-Nox4 cell lysate (10 μg/100 μL) with peptides was performed in assay buffer (25 mM Hepes, pH 7.4, containing 120 mM NaCl, 3 mM KCl, 1 mM MgCl2, 25 μM FAD, 0.1 mM Amplex Red, and 0.32 U/mL of HRP) for 15 or 60 min at room temperature on an orbital shaker (120 movements/min), before the addition of 36 μM NADPH, to initiate H2O2 production. […] Fluorescence measurements were made using a Biotek Synergy 4 Hybrid Multi-Mode Microplate Reader (excitation wavelength: 560 nm; emission wavelength: 590 nm). A standard curve of known H2O2 concentrations was developed using the Amplex Red assay (as per the manufacturer's instructions) and was used to quantify H2O2 production in lysed COS-Nox4 cells. The reaction was monitored at room temperature for 40 min. The emission increase was linear during this interval. The rate of H2O2 production was interpolated from the standard curve and is […] nmol H2O2/min/mg protein. The effect of a peptide on Nox4-derived H2O2 production was expressed as percent inhibition of Nox4, which was calculated by considering H2O2 production by control mixtures in the absence of peptide as 100%.

[2] = system: Nox2; settings: ref [8]; cited from earlier work
From the text: With this in mind, in the current study, we tested whether application of a peptide mimic (B90–98) from the variable region of Nox4 B-loop interferes with the activity of Nox4. An important premise for this work was ...

Molecule: c1ccc2c(c1)[I+]c1ccccc1-2 [DPI, diphenyleneiodonium chloride, reference compound]
- inhibition of Nox4-dependent activity (rate of H2O2 generation) ([1]; COS-Nox4 cell lysate, DPI 50 μM, 36 μM NADPH, Amplex Red/HRP, monitored at 24°C for 40 min, mean of 3 experiments): ~ 90%

Molecule: B77–91: 15-mer peptide from the Nox4 B-loop, residues 77–91 (RTLLAYLRGSQKVPS; UniProt Q9NPH5 77-91, looked up, fragment)
- inhibition of H2O2 production (Nox4 activity) ([1]; Amplex Red): did not inhibit

Molecule: B82–96: 15-mer peptide from the Nox4 B-loop, residues 82–96 (YLRGSQKVPSRRTRR; UniProt Q9NPH5 82-96, looked up, fragment)
- inhibition of H2O2 production (Nox4 activity) ([1]; Amplex Red): did not inhibit

Molecule: B90–98: nonamer peptide mimic from the variable region of Nox4 B-loop, residues 90–98 (PSRRTRRLL; UniProt Q9NPH5 90-98, looked up, fragment)
- inhibition of Nox4-derived H2O2 production ([1]; COS-Nox4 cell lysate preincubated with peptide 0.1-100 μM for 15 min at 24°C, 36 μM NADPH, Amplex Red, mean of 3 experiments (Figure 1(d))): did not inhibit

Molecule: B92–106: 15-mer peptide from the Nox4 B-loop, residues 92–106 (RRTRRLLDKSRTFHI; UniProt Q9NPH5 92-106, looked up, fragment)
- inhibition of H2O2 production (Nox4 activity) ([1]; Amplex Red): did not inhibit

Molecule: C555–562: octameric Nox4 C-terminal tail peptide, residues 555–562 (TLHKLSNQ; UniProt Q9NPH5 555-562, looked up, fragment)
- effect on Nox4 activity (H2O2 production) ([1]; Amplex Red): did not affect

Molecule: C560–567: octameric Nox4 C-terminal tail peptide, residues 560–567 (SNQNNSYG; UniProt Q9NPH5 560-567, looked up, fragment)
- effect on Nox4 activity (H2O2 production) ([1]; Amplex Red): did not affect

Molecule: C565–572: octameric Nox4 C-terminal tail peptide, residues 565–572 (SYGTRFEY; UniProt Q9NPH5 565-572, looked up, fragment)
- effect on Nox4 activity (H2O2 production) ([1]; Amplex Red): did not affect

Molecule: C570–578: nonameric Nox4 C-terminal tail peptide, residues 570–578 (FEYNKESFS; UniProt Q9NPH5 570-578, looked up, fragment)
- effect on Nox4 activity (H2O2 production) ([1]; Amplex Red): did not affect

Molecule: Nox2ds: peptide mimicking the B-loop region of Nox2 (amino acids 86–94), earlier work of the authors (CSTRVRRQL; UniProt P04839 86-94, looked up, fragment)
- inhibition of Nox2-derived O2•− production [2]: selectively and potently inhibits

Molecule: PSRRTRELL [R96E mutant version of B90–98, R96E mutant version of B90–98 (…)]
- inhibition of Nox4 activity (H2O2 production) ([1]; COS-Nox4 cell lysate preincubated with peptide 0.3 to 30 μM for 15 min at 24°C, Amplex Red, mean of 3 experiments (Figure 1(e))): did not inhibit

Molecule: RAMRAN [p22 W6/9R, p22phox 6–11 peptide with tryptophans mutated to arginine (RAMRAN)]
- inhibition of Nox4 activity (Nox4-derived H2O2 production) ([1]; Amplex Red): did not inhibit

Molecule: WAMWAN [p22 WT 6–11]
- inhibition of Nox4 activity (Nox4-derived H2O2 production) ([1]; Amplex Red): did not inhibit
